This note sets out measurements from patent publication US12116597B2, “Autophagy as a therapeutic target for intracranial aneurysm” (THE BOARD OF REGENTS OF THE UNIVERSITY OF TEXAS SYSTEM, priority 2022, dated 2024).

For the assay, the system named is Thsd1-deficient zebrafish. The assay is described as follows: Intracranial hemorrhage incidence in thsd1-MO zebrafish embryos treated with autophagy inhibitors. It counts as in vivo. The settings on record: thsd1-MO injected zebrafish embryos; added to embryo water at 1 dpf for 24 hours; 3-MA 10 mM, wortmannin 50 nM, verteporfin 1 uM; FIG. 11. The procedure:
Anti-sense morpholinos against thsd1, atg5 or talin was injected into one-cell stage zebrafish singly or in combination to silence the gene accordingly. At day 2 to day 3, embryos will be checked under regular optical microscope. Embryos with intracranial hemorrhages will be counted and imaged by Olympus microscope.
To test the hypothesis that autophagy inhibition could treat intracranial hemorrhage in-vivo 80-120 different zebrafish animals genetically engineered as described in Table 5 were treated with three distinct autophagy inhibitors, namely, 3-MA, wortmannin, or verteporfin. Control (DMSO) or other known autophagy inhibitors including 3-MA (10 mM), wortmannin (50 nM), and verteporfin (1 uM) were added to embryo water at 1 dpf for 24 hours. All embryos were injected by thsd1-MO and the hemorrhagic incidence was counted under microscope. For each injection, around 80-120 embryos were injected. *p<0.05, **p<0.01, n.s. means not significant.
After significant effort in contacting individuals and sequencing the families shown in FIG. 1A, the present disclosure first identified THSD1 as a gene associated with sub-cranial hemorrhage. In specific cases, a single codon substitution was identified as responsible for the phenotype L5F, R460W, E466G, G600E, P639L, T653I, or S775P. […]

In the case of `Cn1cnc(N)c2ncnc1-2` [3-MA, 3-Methyladenine], the “intracranial hemorrhage (hemorrhagic incidence counted under microscope)” value is given as “rescued intracranial hemorrhage”.

Regarding Verteporfin, the “intracranial hemorrhage (hemorrhagic incidence counted under microscope)” value was “rescued intracranial hemorrhage”.
